Measurements as given in ChEMBL document CHEMBL1201862, “PubChem BioAssay data set” (2004).
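Values below derive from 48-hour exposures of cells grown in 96-well plates, with endpoints linearly interpolated between the two concentrations bracketing the appropriate inhibition level. GI50 = concentration required for 50% inhibition of growth.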 Active and inactive are the calls of the source. Cut-off read from the data, not from the text of the source: active = GI50 up to about 1.1 µM and inactive = higher.

Key:
Assay in all cases: growth of human tumour cells (NCI), 48 h
[1] = tested on: A498
[2] = tested on: SNB-75
[3] = tested on: HT-29
[4] = tested on: KM12
[5] = tested on: ACHN
[6] = tested on: HOP-62
[7] = tested on: SF-268
[8] = tested on: U-251
[9] = tested on: OVCAR-4
[10] = tested on: UACC-257
[11] = tested on: COLO 205
[12] = tested on: LOX IMVI
[13] = tested on: TK-10
[14] = tested on: M14
[15] = tested on: SW-620
[16] = tested on: HOP-92
[17] = tested on: SK-OV-3

Measured: GI50

O=C(O)CCSC(=O)Nc1cccc([N+](=O)[O-])c1
inactive: [1] > 100 µM | [2] > 100 µM | [3] 87.1 µM | [4] > 100 µM | [5] 52.7 µM | [6] > 100 µM | [7] 17 µM | [8] > 100 µM | [9] 60.8 µM | [10] > 100 µM | [11] > 100 µM | [12] 66.7 µM | [13] > 100 µM | [14] > 100 µM | [15] 92.9 µM

CCOc1ccc([Se][Se]c2ccc(OCC)cc2)cc1
inactive: [2] 96.4 µM | [4] > 100 µM | [7] 70.1 µM | [8] 26.9 µM | [9] > 100 µM | [11] > 100 µM | [13] > 100 µM | [14] > 100 µM | [15] > 100 µM

CCOc1cc(/C=C/C=C/C=C/c2ccc(N(C)C)cc2)[s+]c2ccccc12
inactive: [1] > 100 µM | [2] 32 µM | [3] 28.7 µM | [4] 10.1 µM | [5] 35.6 µM | [6] 95.5 µM | [7] 13.5 µM | [8] 31.8 µM | [9] 19.3 µM | [10] 30.7 µM | [16] 25.1 µM | [11] 41.1 µM | [13] 40.4 µM | [17] > 100 µM | [14] 19.7 µM | [15] 30.3 µM

C=C1C(C(=O)O)C1C(=O)O (stereo not given)
inactive: [1] > 100 µM | [2] > 100 µM | [3] > 100 µM | [4] > 100 µM | [5] > 100 µM | [6] > 100 µM | [7] > 100 µM | [8] > 100 µM | [9] > 100 µM | [10] > 100 µM | [16] > 100 µM | [12] > 100 µM | [13] > 100 µM | [17] > 100 µM | [14] > 100 µM | [15] > 100 µM

O=c1/c(=C/c2c(O)ccc3ccccc23)sc2nc3ccccc3n12
inactive: [1] > 100 µM | [2] > 100 µM | [3] > 100 µM | [4] > 100 µM | [5] > 100 µM | [6] > 100 µM | [7] > 100 µM | [8] > 100 µM | [9] > 100 µM | [10] > 100 µM | [16] > 100 µM | [11] > 100 µM | [12] > 100 µM | [13] > 100 µM | [17] > 100 µM | [14] > 100 µM | [15] > 100 µM

N#CC(C(=O)CCC(=O)Nc1ccc(Cl)c(Cl)c1)c1ccccc1 (stereo not given)
inactive: [1] > 100 µM | [2] > 100 µM | [3] > 100 µM | [4] > 100 µM | [5] > 100 µM | [6] > 100 µM | [7] > 100 µM | [8] > 100 µM | [9] > 100 µM | [10] > 100 µM | [16] > 100 µM | [14] > 100 µM | [15] > 100 µM

Cc1ccc(NC(=O)C(=O)Cc2nc3ccccc3o2)c(C)c1
inactive: [2] > 100 µM | [3] > 100 µM | [4] > 100 µM | [5] > 100 µM | [6] > 100 µM | [7] > 100 µM | [8] > 100 µM | [9] > 100 µM | [10] > 100 µM | [16] > 100 µM | [11] > 100 µM | [12] > 100 µM | [13] > 100 µM | [17] > 100 µM | [14] > 100 µM | [15] > 100 µM

O=[PH](O)c1ccsc1
inactive: [1] > 100 µM | [3] 55 µM | [5] > 100 µM | [6] > 100 µM | [7] > 100 µM | [8] > 100 µM | [16] 86.5 µM | [11] > 100 µM | [12] > 100 µM | [13] > 100 µM | [17] > 100 µM | [14] > 100 µM | [15] > 100 µM

COC(=O)C12C3C4C5(C(=O)OC)C(C1C35C(=O)N(C(C)C)C(C)C)C42C(=O)N(C(C)C)C(C)C (stereo not given)
inactive: [1] > 50 µM | [2] > 35.5 µM | [3] > 50 µM | [4] > 50 µM | [5] > 50 µM | [6] > 50 µM | [7] > 50 µM | [8] > 50 µM | [9] > 35.6 µM | [10] > 50 µM | [16] > 50 µM | [11] > 50 µM | [12] > 27.1 µM | [13] > 50 µM | [17] > 50 µM | [14] > 50 µM | [15] > 25.5 µM

COc1ccc(C=C2C(=O)OC(C)(C)OC2=O)cc1OC
inactive: [1] > 100 µM | [2] 80.7 µM | [3] > 100 µM | [4] > 100 µM | [5] > 100 µM | [6] > 100 µM | [7] > 100 µM | [8] > 100 µM | [9] > 100 µM | [10] > 100 µM | [11] > 100 µM | [13] > 100 µM | [17] > 100 µM | [14] > 100 µM | [15] > 100 µM

O=C1CC23CCCCCCCCCCC2(C1)CC(=O)C3 (stereo not given)
inactive: [3] 18.1 µM | [4] 21.3 µM | [5] 29 µM | [7] 51.9 µM | [8] 22.8 µM | [10] 34.8 µM | [16] 21.1 µM | [11] 18.4 µM | [13] 38.5 µM | [17] 16.8 µM | [14] 16.6 µM | [15] 40.6 µM

O=C(CN(c1ccccc1)c1ccccc1)n1nnc2ccccc21
inactive: [2] 27 µM | [3] 44.1 µM | [5] 36.5 µM | [6] > 100 µM | [7] 28.4 µM | [8] 26.1 µM | [10] 41.4 µM | [11] 36.9 µM | [12] 24.2 µM | [13] > 100 µM | [17] > 100 µM | [14] 52.8 µM | [15] 30 µM

CCOC(=O)C(NC(=O)c1nc[nH]c1[N+](=O)[O-])C(C)C (stereo not given)
inactive: [1] > 100 µM | [2] > 100 µM | [3] 74 µM | [4] > 100 µM | [5] > 100 µM | [6] > 100 µM | [7] > 100 µM | [8] 34.5 µM | [9] > 100 µM | [10] 94.8 µM | [11] 82 µM | [12] > 100 µM | [17] > 100 µM | [14] > 100 µM | [15] > 100 µM

O=C1CCC2CCc3cccc4oc1c2c34 (stereo not given)
inactive: [1] > 100 µM | [2] > 100 µM | [3] > 100 µM | [5] > 100 µM | [6] > 100 µM | [8] > 100 µM | [9] > 100 µM | [10] > 100 µM | [16] 75.5 µM | [11] > 100 µM | [12] > 100 µM | [13] > 100 µM | [17] > 100 µM | [14] > 100 µM | [15] > 100 µM

COc1ccc(/C=C/CN(C)CCc2ccccc2)cc1OC
inactive: [2] 25.9 µM | [3] 33.5 µM | [4] > 100 µM | [5] > 100 µM | [7] > 100 µM | [8] 86.9 µM | [10] 36.1 µM | [16] 4.89 µM | [11] 52 µM | [13] 46 µM | [15] 97.3 µM

COCCNC(=O)C1C(=O)C(=O)N(CCOC)C1=O (stereo not given)
inactive: [1] > 100 µM | [2] > 100 µM | [3] > 100 µM | [5] > 100 µM | [6] > 100 µM | [7] > 100 µM | [8] > 100 µM | [9] > 100 µM | [10] > 100 µM | [16] > 100 µM | [11] > 100 µM | [12] > 100 µM | [13] > 100 µM | [17] > 100 µM | [14] > 100 µM | [15] > 100 µM

COc1ccc(/C(Cl)=C(/c2ccc(O)cc2)c2ccc(OCCN(C)C)cc2)cc1
inactive: [2] 11 µM | [3] 2.13 µM | [4] 9.14 µM | [5] 14.6 µM | [6] 13.6 µM | [7] 11.8 µM | [8] 11.2 µM | [9] 13.9 µM | [10] 2.9 µM | [11] 9.86 µM | [12] 2.96 µM | [13] 19.7 µM | [17] 13.1 µM | [14] 2.1 µM | [15] 11.9 µM

COc1cc(C(C#N)NNc2nc(C)cc(O)n2)cc(OC)c1OC (stereo not given)
inactive: [2] 37.2 µM | [3] > 100 µM | [4] > 100 µM | [5] > 100 µM | [6] > 100 µM | [7] > 100 µM | [8] > 100 µM | [9] > 100 µM | [10] > 100 µM | [16] 51.6 µM | [11] > 100 µM | [12] > 100 µM | [13] > 100 µM | [17] > 100 µM | [14] > 100 µM | [15] > 100 µM

CCOC(=O)C1Sc2ccccc2N=C1C (stereo not given)
inactive: [1] > 100 µM | [2] > 100 µM | [3] > 100 µM | [4] > 100 µM | [5] > 100 µM | [6] > 100 µM | [7] > 100 µM | [8] > 100 µM | [9] > 100 µM | [10] > 100 µM | [16] > 100 µM | [11] > 100 µM | [12] > 100 µM | [13] > 100 µM | [15] > 100 µM
